The values below come from US6323369A, “Substituted cycloheptenes, their preparation and use” (Gruenenthal GmbH, priority 1998, dated 2001).

Structures can show the parent of a compound that is named as a salt.

For experiment [1], the system named is phenylquinone-induced writhing in mice. Kind of experiment: Anti-nociceptive activity in phenylquinone-induced writhing test in mice. Format: in vivo, mouse (male NMRI). Conditions: Mus musculus, iv, 10 min; i.v., phenylquinone i.p. 10 min after compound, writhing counted 5-20 min after phenylquinone; 10 animals per dose; 95% confidence range in parentheses. The procedure:
The anti-nociceptive effectiveness was tested in phenylquinone-induced writhing in mice, modified by I. C.Hendershot, J. Forsaith, J. Pharmacol. Exp. Ther. 125, 237-240 (1959). Here, male NMRI mice with a weight of 25-30 g were used. 10 min after intravenous administration of a compound according to the invention, 0.3 ml/mouse of a 0.02% strength aqueous solution of phenylquinone was administered intraperitoneally to groups of 10 animals per substance dose (phenylbenzoquinone, Sigma, Deisenhofen; solution prepared by adding 5% ethanol and storing in a water bath at 45° C.). The animals were placed individually in observation cages. Using a push button counter,the number of pain-induced stretching movements (so-called writhing reactions=straightening the body while stretching out the back extremities) was counted 5-20 min after administration of the phenylquinone. From the dose-dependent decrease in writhing reactions as compared with groups of animals tested in parallel to which no compounds according to the invention had been administered, the ED50 values for the writhing reaction were calculated using regression analysis (evaluation programme Martens EDV service, Eckental).
On the technique in general: An intraperitoneal irritant provokes the stretching counted in writhing tests.

For another experiment, the target named is T1, δ-opiate receptor (Rattus norvegicus, UniProt P33533).
T1 construct: performed in brain membrane homogenates; from tissue; host or cells: rat brain without cerebellum, pons and medulla oblongata, male Wistar rats (membrane homogenate)
T1 sequence (P33533 whole entry): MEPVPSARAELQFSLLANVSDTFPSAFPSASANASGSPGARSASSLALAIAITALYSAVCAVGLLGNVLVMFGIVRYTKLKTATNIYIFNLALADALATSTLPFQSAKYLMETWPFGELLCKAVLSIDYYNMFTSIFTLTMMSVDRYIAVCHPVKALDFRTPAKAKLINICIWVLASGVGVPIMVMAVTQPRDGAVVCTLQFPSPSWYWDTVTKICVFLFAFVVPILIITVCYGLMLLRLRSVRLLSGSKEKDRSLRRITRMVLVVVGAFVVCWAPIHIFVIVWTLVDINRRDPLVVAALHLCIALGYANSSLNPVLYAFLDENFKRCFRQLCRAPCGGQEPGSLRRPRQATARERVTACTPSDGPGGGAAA
Kind of experiment: δ-opiate receptor bonding test ((3H)-2-D-ala-deltorphin II displacement). Format: binding, rat (male Wistar). Conditions: rat brain membrane homogenate, 1 nmol/l (3H)-2-D-ala-deltorphin II, 90 min at 37° C., pH 7.4; mean ± standard deviation of 3 independent trials. On the procedure: Tests on determining the affinity of compounds of the formula I according to the invention for the δ-opiate receptor were performed in brain membrane homogenates (homogenate from rat brain without the cerebellum, pons and medulla oblongata from male Wistar rats). In this case, freshly prepared rat brain was homogenised each time, cooled by ice, in 50 mmol/l of tris-HCl (tris-(hydroxymethyl)-aminomethane hydrochloride) (pH 7.4) and centrifuged for 10 min at 5,000 g and 4° C. After decanting and discarding the supernatant liquid, the membrane sediment was again taken up in 50 mmol/l of tris-HCl (pH 7.4) and homogenised and the homogenate was then centrifuged for 20 min at 20,000 g and 4° C. This wash stage was repeated once more. Then the supernatant liquid was decanted and the membrane sediment was homogenised in cold 50 mmol/l tris-HCl, 20% glycerol (w:v), 0.01% bacitracin (w/v) (pH 7.4) and frozen in portions until tested. For the receptor bonding tests, the portions were thawed out and diluted 1:10 with the bonding test buffer. A 50 mmol/l tris-HCl, 5 mmol/l MgCl2 (pH 7.4) supplemented with 0.1% (w:v) of bovine serum albumin was used as buffer, and 1 nmol/l of (^3 H)-2-D-ala-deltorphin II was used as a radioactive ligand in the bonding test. The proportion of non-specific bonding was determined in the presence of […] of naloxon. In further batches, the compounds according to the invention were added in a number of concentrations and the displacement of the radioactive ligand from its specific bond was determined. Three identical batches were incubated for 90 min at 37° C. and then harvested in order to determine the radioactive ligand bonded to the membrane homogenate by means of filtration through a glass fibre filter (GF/B). The radioactivity of the glass fibre filter discs was measured in a beta-counter by adding a scintillator. The affinity of compounds according to the invention for the δ-opiate receptor was calculated as IC50 in accordance with the law of mass action using non-linear regression. The K values in table 1 are given as the average value plus or minus the standard deviation of 3 quite independent trials.

As for `CN(C)CC1=C(c2cccc(O)c2)CC(c2cccc(O)c2)CCC1.Cl` (stereo not drawn) [Example 1, 3-[2-dimethylaminomethyl-6-(3-hydroxyphenyl)-cyclohept-1-enyl]-phenol hydrochloride], in experiment [1], the ED50 – broadly, the dose at which the effect has come halfway, by size or by number of responders – is 3.31 mg/kg. For the same molecule, the Ki (as a rule, a measure of affinity in units of concentration, obtained from inhibition or displacement) at δ-opiate receptor came to 1.4 ± 0.8 nM. The like results for `CN(C)CC1=C(c2cccc(O)c2)CC(c2ccc(Cl)cc2)CCC1.Cl` (stereo not drawn) [Example 2a, 3-[6-(4-chlorophenyl)-2-dimethylaminomethyl-cyclohept-1-enyl]-phenol hydrochloride] were, in that order, 7.4 mg/kg and 30.3 ± 4.7 nM. The like results for `CN(C)CC1=C(c2cccc(O)c2)CC(c2ccccc2)CCC1.Cl` (stereo not drawn) [Example 2b, 3-(2-dimethylaminomethyl-6-phenyl-cyclohept-1-enyl)-phenol hydrochloride] were, in that order, 4.48 mg/kg and 3.8 ± 0.2 nM. On the same counts, the results for `CN(C)CC1=C(c2cccc(O)c2)CC(c2cccc3ccccc23)CCC1.Cl` (stereo not drawn) [Example 2c, 3-(2-dimethylaminomethyl-6-naphth-1-yl-cyclohept-1-enyl)-phenol hydrochloride] are 5.29 mg/kg and 24.7 ± 2.4 nM.

As to `CN(C)CC1=C(c2cccc(O)c2)CC(c2ccc3ccccc3c2)CCC1.Cl` (stereo not drawn) [Example 2d, 3-(2-dimethylaminomethyl-6-naphth-2-yl-cyclohept-1-enyl]-phenol hydrochloride], in experiment [1], the ED50 came to 7.56 mg/kg. This molecule also had a Ki at δ-opiate receptor of 31.5 ± 5.9 nM.

As to `CN(C)CC1=C(c2cccc(O)c2)CC(c2ccc(O)cc2)CCC1.Cl` (stereo not drawn) [Example 2e, 3-[2-dimethylaminomethyl-6-(4-hydroxyphenyl)-cyclohept-1-enyl]-phenol hydrochloride], the ED50 in experiment [1] amounted to 2.25 mg/kg. This molecule showed a Ki at δ-opiate receptor of 15.2 ± 4.3 nM. Turning to `Cc1cccc(C2CCCC(CN(C)C)=C(c3cccc(O)c3)C2)c1` (stereo not drawn) [Example 2f, 3-(2-dimethylaminomethyl-6-m-toluyl-cyclohept-1-enyl]-phenol hydrochloride], the Ki at δ-opiate receptor was 3.2 ± 0.8 nM. Consider `CN(C)CC1=C(c2cccc(O)c2)CC(c2cccc(C(C)(C)C)c2)CCC1` (stereo not drawn) [Example 2g, 3-[6-(3-tert-butyl-phenyl)-2-dimethylaminomethyl-cyclohept-1-enyl]-phenol hydrochloride], for which the Ki at δ-opiate receptor amounted to 17.5 ± 5.2 nM.

Turning to `CN(C)CC1=C(c2cccc(O)c2)CC(c2ccc3cc(O)ccc3c2)CCC1` (stereo not drawn) [Example 2h, hydrochloride], the ED50 in experiment [1] is 6.22 mg/kg. The same molecule displayed a Ki on δ-opiate receptor of 19.4 ± 4.7 nM.

As for `CN(C)CC1=C(c2cccc(O)c2)CC(c2ccc(O)c(F)c2)CCC1.Cl` (stereo not drawn) [Example 2i, 3-[2-dimethylaminomethyl-6-(3-fluoro-4-hydroxyphenyl)-cyclohept-1-enyl]-phenol hydrochloride], the ED50 in experiment [1] came out at 0.89 mg/kg. The affinity on δ-opiate receptor, expressed as Ki, was 14.6 ± 2.2 nM.

`CN(C)CC1=C(c2cccc(O)c2)CC(c2ccccc2O)CCC1` (stereo not drawn) [Example 2j, 3-[2-dimethylaminomethyl-6-(2-hydroxyphenyl)-cyclohept-1-enyl]-phenol hydrochloride] registered a Ki on δ-opiate receptor of 24.7 ± 3.1 nM. The same measure, in the same setting: then `CN(C)CC1=C(c2cccc(O)c2)CC(C2CCCCC2)CCC1` (stereo not drawn) [Example 2k, 3-(6-cyclohexyl-2-dimethylaminomethyl-cyclohept-1-enyl)-phenol hydrochloride], with 10.3 ± 2.2 nM; and `CN(C)CC1=C(c2cccc(O)c2)CC(CC2CCCCC2)CCC1` (stereo not drawn) [Example 2l, 3-(6-cyclohexylmethyl-2-dimethylaminomethyl-cyclohept-1-enyl)-phenol hydrochloride], with 28.6 ± 5.8 nM; and `CN(C)CC1=C(c2cccc(O)c2)CC(Cc2ccccc2)CCC1` (stereo not drawn) [Example 2m, 3-(6-benzyl-2-dimethylaminomethyl-cyclohept-1-enyl)-phenol hydrochloride], with 10.2 ± 1 nM. For `CN(C)CC1=C(c2cccc(O)c2)CC(Cc2cccc(O)c2)CCC1` (stereo not drawn) [Example 2n, 3-[2-dimethylaminomethyl)-6-(3-hydroxybenzyl)-cyclohept-1-enyl]-phenol hydrochloride], the Ki at δ-opiate receptor stood at 7.4 ± 2.2 nM. Still for that read-out and setting: the figure for `CN(C)CC1=C(c2cccc(O)c2)CC(CCc2ccccc2)CCC1` (stereo not drawn) [Example 2o, 3-(2-dimethylaminomethyl-6-phenethyl-cyclohept-1-enyl)-phenol hydrochloride] is 30.6 ± 10.5 nM; for `Cc1cc(C2CCCC(CN(C)C)=C(c3cccc(O)c3)C2)cc(C)c1O` (stereo not drawn) [Example 2p, 3-[2-dimethylaminomethyl)-6-(3,5-dimethyl-4-hydroxyphenyl)-cyclohept-1-enyl]-phenol hydrochloride] it is 2.5 nM. Consider `CN(CCc1ccccc1)CC1=C(c2cccc(O)c2)CC(c2ccccc2)CCC1.Cl` (stereo not drawn) [Example 3, 3-{2-[(methylphenethylamino)-methyl]-6-phenyl-cyclohept-1-enyl}-phenol hydrochloride], for which the ED50 in experiment [1] was 3.4 mg/kg. The molecule also had a Ki on δ-opiate receptor of 8.3 ± 3.3 nM.
